Calls of active or inactive are those of the source.
Columns and labels:
[1] = biological target: DNA dC->dU-editing enzyme APOBEC-3A (Homo sapiens, UniProt P31941); test: A3A deaminase inhibition for selectivity – biochemical, dose response (AID 504722); type: functional
[2] = biological target: DNA dC->dU-editing enzyme APOBEC-3G (Homo sapiens, UniProt Q9HC16); test: Dose Response confirmation of small molecule APOBEC3G DNA Deaminase Inhibitors via a fluorescence-based single-stranded DNA deaminase assay. [Related pubchem assays (depositor defined):AID493012, AID493028]; type: functional
SUMO-activating enzyme = SUMO-activating enzyme (Homo sapiens, UniProt Q9UBT2); test: blockers of UBC9-mediated SUMO conjugation – biochemical, AlphaScreen, SUMOylation inhibitor project, confirmation (AID 2018); type: functional
[3] = biological target: T1, Ubiquitin-conjugating enzyme E2 N (Homo sapiens, UniProt P61088); type: functional
T1 sequence (P61088 whole entry): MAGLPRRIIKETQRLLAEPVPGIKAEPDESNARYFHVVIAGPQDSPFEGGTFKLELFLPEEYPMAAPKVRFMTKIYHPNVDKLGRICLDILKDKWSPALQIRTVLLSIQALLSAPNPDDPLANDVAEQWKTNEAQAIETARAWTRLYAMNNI

Bcl-2-related protein A1 = biological target: T2, Bcl-2-related protein A1 (Mus musculus, UniProt Q07440); type: functional;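 also: confirmatory dose–response counterscreen on Bfl-1, used to check hits from a UBC13 polyubiquitin inhibitor campaign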
T2 sequence (Q07440 whole entry): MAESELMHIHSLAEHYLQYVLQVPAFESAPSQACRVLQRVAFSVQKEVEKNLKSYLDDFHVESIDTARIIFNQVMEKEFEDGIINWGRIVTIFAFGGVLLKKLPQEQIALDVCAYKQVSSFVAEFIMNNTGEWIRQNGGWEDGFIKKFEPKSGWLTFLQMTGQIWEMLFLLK

[4] = biological target: T1, Ubiquitin-conjugating enzyme E2 N; type: functional; remark: listed apart in the source
[5] = biological target: Peroxisome proliferator-activated receptor gamma/Nuclear receptor coactivator 3 (Homo sapiens, UniProt P37231); type: functional;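 also: agonist potency for raising coactivator recruitment to the receptor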
[6] = biological target: Peroxisome proliferator-activated receptor gamma/Nuclear receptor coactivator 1 (Homo sapiens, UniProt P37231); type: functional;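 also: agonist potency as compounds enhance coactivator SRC-1 recruitment to PPARgamma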
Peroxisome proliferator-activated receptor gamma/Nuclear receptor coactivator 1, sequence (P37231 whole entry): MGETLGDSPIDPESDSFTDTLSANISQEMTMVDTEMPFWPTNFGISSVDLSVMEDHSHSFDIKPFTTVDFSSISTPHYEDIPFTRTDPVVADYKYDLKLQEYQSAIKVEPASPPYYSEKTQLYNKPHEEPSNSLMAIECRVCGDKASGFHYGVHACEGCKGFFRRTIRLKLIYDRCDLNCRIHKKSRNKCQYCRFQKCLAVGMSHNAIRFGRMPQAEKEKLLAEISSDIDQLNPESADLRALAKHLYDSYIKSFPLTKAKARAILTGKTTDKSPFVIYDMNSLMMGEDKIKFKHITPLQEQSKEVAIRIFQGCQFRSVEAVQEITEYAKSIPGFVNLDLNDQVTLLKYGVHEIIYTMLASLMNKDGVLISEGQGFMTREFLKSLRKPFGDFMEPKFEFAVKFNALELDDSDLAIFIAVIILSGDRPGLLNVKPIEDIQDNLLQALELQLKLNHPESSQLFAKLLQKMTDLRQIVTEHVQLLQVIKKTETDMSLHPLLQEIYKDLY
Peroxisome proliferator-activated receptor gamma/Nuclear receptor coactivator 1, sequence (Q15788 whole entry, further chain): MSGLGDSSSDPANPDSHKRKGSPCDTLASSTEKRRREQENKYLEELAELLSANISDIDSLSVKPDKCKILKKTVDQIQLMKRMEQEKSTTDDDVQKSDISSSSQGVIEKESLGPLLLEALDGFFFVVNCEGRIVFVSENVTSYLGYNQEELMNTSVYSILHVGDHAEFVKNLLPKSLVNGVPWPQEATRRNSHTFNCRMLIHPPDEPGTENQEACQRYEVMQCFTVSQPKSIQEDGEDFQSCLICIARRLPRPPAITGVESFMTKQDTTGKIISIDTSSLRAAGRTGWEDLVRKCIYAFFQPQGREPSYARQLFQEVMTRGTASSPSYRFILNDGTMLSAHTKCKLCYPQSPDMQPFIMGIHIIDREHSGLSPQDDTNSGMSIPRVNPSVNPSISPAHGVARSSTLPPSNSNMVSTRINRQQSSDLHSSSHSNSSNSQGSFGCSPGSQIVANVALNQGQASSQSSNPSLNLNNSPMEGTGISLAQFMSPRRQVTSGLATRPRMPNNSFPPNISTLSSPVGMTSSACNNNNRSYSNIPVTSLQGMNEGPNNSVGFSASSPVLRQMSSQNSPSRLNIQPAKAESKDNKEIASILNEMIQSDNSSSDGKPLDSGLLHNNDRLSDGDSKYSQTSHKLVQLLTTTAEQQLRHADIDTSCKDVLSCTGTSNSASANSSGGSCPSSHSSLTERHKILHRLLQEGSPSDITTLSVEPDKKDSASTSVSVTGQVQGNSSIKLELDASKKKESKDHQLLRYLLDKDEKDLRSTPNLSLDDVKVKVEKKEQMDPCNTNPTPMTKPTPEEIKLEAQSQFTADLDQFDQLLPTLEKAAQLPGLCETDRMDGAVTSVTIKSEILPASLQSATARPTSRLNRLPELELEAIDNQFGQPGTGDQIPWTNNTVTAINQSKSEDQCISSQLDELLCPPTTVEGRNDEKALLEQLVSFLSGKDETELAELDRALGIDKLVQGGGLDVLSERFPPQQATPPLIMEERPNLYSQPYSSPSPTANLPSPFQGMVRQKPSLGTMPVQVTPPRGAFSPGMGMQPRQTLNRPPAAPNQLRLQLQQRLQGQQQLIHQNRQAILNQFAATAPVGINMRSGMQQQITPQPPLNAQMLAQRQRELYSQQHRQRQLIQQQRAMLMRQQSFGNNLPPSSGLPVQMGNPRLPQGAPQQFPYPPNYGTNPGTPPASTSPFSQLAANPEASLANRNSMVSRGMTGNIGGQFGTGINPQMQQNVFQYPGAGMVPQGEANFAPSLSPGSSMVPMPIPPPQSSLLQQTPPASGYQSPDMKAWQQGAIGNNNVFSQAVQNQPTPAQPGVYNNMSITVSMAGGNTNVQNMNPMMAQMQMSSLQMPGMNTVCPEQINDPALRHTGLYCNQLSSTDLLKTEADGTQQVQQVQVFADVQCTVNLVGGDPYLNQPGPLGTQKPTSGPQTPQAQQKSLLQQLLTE

[7] = biological target: Peroxisome proliferator-activated receptor gamma/Nuclear receptor coactivator 2 (Homo sapiens, UniProt P37231); type: functional;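 also: agonist potency for raising coactivator recruitment to the receptor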
Peroxisome proliferator-activated receptor gamma/Nuclear receptor coactivator 2, sequence (P37231 whole entry): as the sequence (P37231 whole entry) above
Peroxisome proliferator-activated receptor gamma/Nuclear receptor coactivator 2, sequence (Q15596 whole entry, further chain): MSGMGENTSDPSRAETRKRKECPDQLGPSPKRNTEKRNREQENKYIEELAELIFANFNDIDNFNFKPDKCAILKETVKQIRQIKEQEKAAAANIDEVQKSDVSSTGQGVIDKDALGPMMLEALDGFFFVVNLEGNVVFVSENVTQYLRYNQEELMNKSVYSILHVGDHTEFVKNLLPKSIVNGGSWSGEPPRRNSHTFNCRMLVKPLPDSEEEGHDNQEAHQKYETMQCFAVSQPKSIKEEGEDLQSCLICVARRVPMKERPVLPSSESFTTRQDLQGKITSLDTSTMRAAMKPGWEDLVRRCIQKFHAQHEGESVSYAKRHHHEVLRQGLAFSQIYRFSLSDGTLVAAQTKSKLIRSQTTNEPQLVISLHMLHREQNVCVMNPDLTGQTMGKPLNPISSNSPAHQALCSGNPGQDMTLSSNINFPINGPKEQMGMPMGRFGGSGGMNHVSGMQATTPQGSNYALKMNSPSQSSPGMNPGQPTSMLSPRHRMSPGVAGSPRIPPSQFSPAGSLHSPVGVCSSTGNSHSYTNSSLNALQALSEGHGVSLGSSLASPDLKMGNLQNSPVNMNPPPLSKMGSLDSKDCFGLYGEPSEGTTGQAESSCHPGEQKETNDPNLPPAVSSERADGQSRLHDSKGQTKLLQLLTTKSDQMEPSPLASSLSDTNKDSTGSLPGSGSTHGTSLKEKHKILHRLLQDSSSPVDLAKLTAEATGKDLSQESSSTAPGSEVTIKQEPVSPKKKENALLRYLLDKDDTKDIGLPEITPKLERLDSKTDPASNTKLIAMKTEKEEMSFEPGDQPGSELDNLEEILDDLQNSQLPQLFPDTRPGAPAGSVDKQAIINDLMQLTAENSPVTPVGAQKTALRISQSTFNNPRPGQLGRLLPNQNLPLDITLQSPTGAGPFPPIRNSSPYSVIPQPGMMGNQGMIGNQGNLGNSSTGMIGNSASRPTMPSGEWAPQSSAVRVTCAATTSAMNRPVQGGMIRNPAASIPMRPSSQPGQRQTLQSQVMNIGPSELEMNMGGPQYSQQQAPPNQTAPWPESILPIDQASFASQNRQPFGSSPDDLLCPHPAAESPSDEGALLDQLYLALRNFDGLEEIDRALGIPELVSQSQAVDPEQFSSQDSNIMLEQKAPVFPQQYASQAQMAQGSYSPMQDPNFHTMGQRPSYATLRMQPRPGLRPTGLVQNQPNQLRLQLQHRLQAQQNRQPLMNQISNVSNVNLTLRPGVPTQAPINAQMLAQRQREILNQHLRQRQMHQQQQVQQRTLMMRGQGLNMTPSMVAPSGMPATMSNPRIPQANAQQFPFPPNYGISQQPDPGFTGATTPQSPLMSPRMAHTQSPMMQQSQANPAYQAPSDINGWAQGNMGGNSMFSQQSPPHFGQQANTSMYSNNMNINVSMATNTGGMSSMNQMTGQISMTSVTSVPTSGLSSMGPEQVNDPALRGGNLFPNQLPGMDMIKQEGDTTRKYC

HEK293 [8] = test: cells; type: functional, cell-based; conditions: Homo sapiens
cells [9] = type: functional
HEK293 [10] = test: inhibition of NOD1-driven NF-kB reporter – cell-based, luminescence, uHTS, primary screen (AID 1578); type: functional; conditions: Homo sapiens
HEK293 [11] = test: cells; type: functional, cell-based; conditions: Homo sapiens; remark: listed apart in the source
[12] = microbe, parasite or virus in culture; type: functional; conditions: Mycobacterium tuberculosis
HEK293 [13] = test: NOD2 signaling inhibitors in MDP-stimulated cells, cell-based, uHTS, luminescence (AID 2001); type: functional; conditions: Homo sapiens
[14] = THP-1 cell cytotoxicity, dose response, cytotoxicity control for non-replicating M. tuberculosis project (AID 489025); type: functional
[15] = Vero E6 cell cytotoxicity, dose response, cytotoxicity control for non-replicating M. tuberculosis project, secondary assay (AID 492998); type: functional, VeroE6; conditions: Vero C1008
[16] = viability of PTEN-deleted HCT116 cells – cell-based, HCT116 PTEN knockout, dose response (AID 1047); type: functional;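 also: HCT116 colon tumor cells with PTEN knocked out; cells exposed to compound for 60 hours before readout; potency for loss of cell viability measured by luminescence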
[17] = NIH3T3 cell viability loss – ATP luminescence, mouse fibroblasts, counter-screen, dose response (AID 2010); type: functional, cell-based;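 also: cells exposed to compound for about 90 hours before reading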
[18] = viability of HCT116 lacking mutant beta-catenin – cell-based, human colon tumor, dose response (AID 1045); type: functional;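 also: HCT116 colon tumor cells with beta catenin knocked out; cells exposed to compound for 60 hours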
[19] = Trypanosoma cruzi growth suppression in host cells – NIH3T3 host cells, beta-gal luminescence, confirmation (AID 2044); type: functional, cell-based;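 also: intracellular parasites grown in NIH/3T3 mouse fibroblasts as host cells; luminescent beta-galactosidase reporter signal from transgenic T. cruzi replicating inside host cells; inhibitors lower the luminescence signal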
cells [20] = test: cells
Cytochrome P450 3A4 = Cytochrome P450 3A4 (Homo sapiens, UniProt P08684);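 also: CYP3A4 tested as one member of a cytochrome P450 panel screen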
Cytochrome P450 3A4, sequence (P08684 whole entry): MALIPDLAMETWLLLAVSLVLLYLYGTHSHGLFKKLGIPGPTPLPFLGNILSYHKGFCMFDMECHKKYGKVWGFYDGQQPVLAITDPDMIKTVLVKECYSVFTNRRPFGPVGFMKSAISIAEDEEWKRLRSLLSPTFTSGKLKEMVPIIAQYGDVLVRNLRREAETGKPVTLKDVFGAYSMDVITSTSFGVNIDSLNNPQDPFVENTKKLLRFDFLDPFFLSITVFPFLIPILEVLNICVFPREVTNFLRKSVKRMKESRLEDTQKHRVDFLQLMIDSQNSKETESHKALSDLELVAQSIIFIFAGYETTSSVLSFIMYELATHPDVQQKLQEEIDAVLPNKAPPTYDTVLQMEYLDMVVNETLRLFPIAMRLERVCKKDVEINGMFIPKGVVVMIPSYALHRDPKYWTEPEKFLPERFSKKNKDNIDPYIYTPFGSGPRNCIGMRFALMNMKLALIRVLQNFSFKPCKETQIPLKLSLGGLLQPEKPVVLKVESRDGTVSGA

Ion channel NompC = Ion channel NompC (Danio rerio, UniProt Q7T1G6); test: Fluorescence counterscreen assay for TRPML3 agonists: dose response cell-based high-throughput screening assay to identify agonists of the transient receptor potential channel N1 (TRPN1). [Related pubchem assays: 1526, 1424, 1448 ]; type: functional
Mucolipin-3 = biological target: T3, Mucolipin-3 (Homo sapiens, UniProt Q8TDD5); test: Dose response cell-based high-throughput screening assay for agonists of the transient receptor potential channel ML3 (TRPML3). [Related pubchem assays: 1526, 1424, 1448 ]; type: functional
T3 sequence (Q8TDD5 whole entry): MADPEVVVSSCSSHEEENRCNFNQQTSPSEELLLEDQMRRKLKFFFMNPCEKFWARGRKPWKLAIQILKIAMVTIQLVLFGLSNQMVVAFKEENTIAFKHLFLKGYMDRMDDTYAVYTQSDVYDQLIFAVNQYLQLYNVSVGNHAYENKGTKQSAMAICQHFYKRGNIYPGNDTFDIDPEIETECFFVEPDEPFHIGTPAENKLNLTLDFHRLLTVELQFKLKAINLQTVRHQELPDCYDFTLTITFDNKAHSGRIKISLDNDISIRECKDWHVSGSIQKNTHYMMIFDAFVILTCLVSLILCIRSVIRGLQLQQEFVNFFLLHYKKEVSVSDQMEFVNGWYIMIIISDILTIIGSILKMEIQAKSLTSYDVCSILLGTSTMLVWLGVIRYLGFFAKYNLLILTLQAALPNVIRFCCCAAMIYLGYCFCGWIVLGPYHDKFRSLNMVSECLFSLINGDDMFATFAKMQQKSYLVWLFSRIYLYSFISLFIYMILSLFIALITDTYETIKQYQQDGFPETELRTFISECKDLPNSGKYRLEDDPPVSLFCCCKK

Cytochrome P450 2C9 = Cytochrome P450 2C9 (Homo sapiens, UniProt P11712)
Cytochrome P450 2C9, sequence (P11712 whole entry): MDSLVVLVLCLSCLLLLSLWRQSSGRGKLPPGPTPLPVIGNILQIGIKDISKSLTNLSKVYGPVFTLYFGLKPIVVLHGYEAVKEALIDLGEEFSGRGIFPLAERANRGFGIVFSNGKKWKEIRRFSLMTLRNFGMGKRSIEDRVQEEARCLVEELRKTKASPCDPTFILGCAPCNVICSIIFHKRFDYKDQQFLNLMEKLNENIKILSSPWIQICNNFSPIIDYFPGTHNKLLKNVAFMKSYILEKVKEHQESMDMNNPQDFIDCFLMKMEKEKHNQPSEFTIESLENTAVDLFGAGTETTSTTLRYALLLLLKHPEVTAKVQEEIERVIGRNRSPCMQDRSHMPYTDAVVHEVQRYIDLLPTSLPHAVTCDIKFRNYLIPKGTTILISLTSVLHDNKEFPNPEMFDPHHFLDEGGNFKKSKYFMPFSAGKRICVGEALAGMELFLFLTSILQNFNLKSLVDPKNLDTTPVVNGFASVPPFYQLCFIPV

Streptococcus = test: GAS UMAA2166 growth inhibition – luminescence, BacTiterGlo, counter-screen for streptokinase expression inhibitor project, dose response (AID 1915); type: functional, organism-based;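 also: potency for reduction of bacterial viability or growth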
BJ [21] = test: BJ-TERT-LT-ST fibroblast viability loss – cell-based, RAS-independent, luminescence, dose response (AID 1935); type: functional; conditions: Homo sapiens;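 also: BJ fibroblasts immortalized with TERT plus LT and ST oncogenes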
BJ [22] = test: cells; type: functional, cell-based; conditions: Homo sapiens
[23] = DRD fibroblast viability loss – cell-based, non-viral oncogenic, luminescence, dose response (AID 1934); type: functional; conditions: Homo sapiens
[24] = NIH-3T3 fibroblast cytotoxicity, dose response, cytotoxicity control, cell-based, fluorescence, Alamar Blue, secondary assay (AID 2327); type: functional;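 also: NIH-3T3 mouse fibroblasts cultured with fluconazole at 8 µg/mL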
BJ [25] = test: BJ-TERT fibroblast viability loss – cell-based, RAS-independent, luminescence, dose response (AID 1933); type: functional; conditions: Homo sapiens
Vero = test: cells; type: functional; conditions: Chlorocebus sabaeus
[26] = biological target: Induced myeloid leukemia cell differentiation protein Mcl-1 (Homo sapiens, UniProt Q07820); type: functional
[27] = fluconazole-exposed Candida albicans growth modulators – fluorescence, retest, confirmation (AID 2467); type: functional, cell-based
INS1 = test: INS-1E survival protection against cytokine death – cell-based, luminescence, retest, dose response (AID 449756); type: functional; conditions: Rattus norvegicus;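 also: cell death triggered by IL-1 beta plus TNF-alpha plus IFN-gamma mixture; protective hits raise ATP signal compared with cytokine alone wells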
[28] = test system: Streptococcus sp. 'group A'; test: Streptococcus pyogenes SK(-)GAS viability under kanamycin – luminescence, BacTiterGlo, confirmation, counter-screen for streptokinase expression inhibitor project, dose response (AID 1900); type: functional, organism-based
Cytochrome P450 2C19 = Cytochrome P450 2C19 (Homo sapiens, UniProt P33261); test: Cytochrome panel assay with activity outcomes. Panel member name: p450-cyp2c19 Compounds with AC50 equal or less than 10 uM are considered active; type: functional; conditions: read-out: AC50

COc1cc(-c2n[nH]c(=S)n2-c2ccc(C)cc2)cc(OC)c1OC
IC50 [1]: > 100 µM (inactive)
IC50 [2]: 3.38 µM (active)

Cc1cc(/C=C2\C(=O)NN(c3ccccc3)C2=O)c(C)n1-c1ccccc1O
IC50 (SUMO-activating enzyme): 40.7 µM (active)

Cc1cc(C(=O)N/N=C/c2ccc(-c3ccc(C)c(Cl)c3)o2)[nH]n1
IC50 (SUMO-activating enzyme): 45.5 µM (active)

O=C(NCCCN1CCCC1)c1ccc(Cn2c(=S)[nH]c3ccc(Br)cc3c2=O)cc1
IC50 [3]: > 20 µM (inactive)
IC50 (Bcl-2-related protein A1): > 20 µM (inactive)
IC50 [4]: 16.7 µM (active)

Cn1c(=O)c(Oc2cc(Cl)cc(Cl)c2)nc2ccccc21
EC50 [5]: 28.8 µM (not active)
EC50 [6]: 24.5 µM (not active)
EC50 [7]: 21.1 µM (not active)

Cc1ccc(-c2csc(NC(=O)c3cc([N+](=O)[O-])ccc3N3CCOCC3)n2)cc1
EC50 [5]: > 79.4 µM (not active)
EC50 [6]: > 79.4 µM (not active)
EC50 [7]: > 79.4 µM (not active)

Sc1nnc(-c2ccncc2)n1/N=C/c1ccccc1Cl
IC50 [1]: > 100 µM (inactive)
IC50 [2]: 3.46 µM (active)

Cc1ccc(Sc2ccc(/C=C3/C(=O)NN(c4ccccc4)C3=O)o2)cc1
IC50 (HEK293 [8]): > 20 µM (inactive)
IC50 (cells [9]): 18.7 µM (active)
EC50 (HEK293 [10]): > 20 µM (inactive)
IC50 (HEK293 [11]): 7.56 µM (active)
CC50 [12]: > 40 µM (active)
IC50 (HEK293 [13]): 18.2 µM (inactive)

Cc1ccc(NC(=O)CC(=O)c2ccc([N+](=O)[O-])cc2)cc1S(=O)(=O)Nc1cccc(Cl)c1
IC50 (HEK293 [8]): > 20 µM (inactive)
EC50 (HEK293 [10]): 9.53 µM (active)
IC50 (HEK293 [11]): 7.05 µM (active)
IC50 (HEK293 [13]): 9.19 µM (active)

Oc1nc2ccccc2c2oc(CCl)nc12
IC50 (cells [9]): 3.25 µM (active)
CC50 [14]: 20.1 µM (active)
CC50 [12]: 12.9 µM (active)
CC50 [15]: 7.46 µM (active)

CC(C)n1c(SCC(=O)NCc2ccco2)nc2c1c(=O)n(C)c(=O)n2C
EC50 [5]: > 79.4 µM (not active)
EC50 [6]: > 79.4 µM (not active)
EC50 [7]: > 79.4 µM (not active)

O=c1[nH]c(SCc2n[nH]c(=S)n2-c2ccccc2)nc2ccccc12
IC50 [1]: > 100 µM (inactive)
IC50 [2]: 3.8 µM (active)

COc1cccc(Nc2nc(NCC3CCCO3)c3ccccc3n2)c1 (configuration not stated)
EC50 [16]: 7.57 µM (active)
EC50 [17]: > 30 µM (not active)
EC50 [18]: 7.05 µM (active)
EC50 [19]: < 0.1 µM (active)
EC50 (cells [20]): 0.443 µM (active)

COc1ccc(/C=C(\C#N)C(=O)OCC(=O)NCc2ccccc2Cl)cc1
IC50 (SUMO-activating enzyme): 42.3 µM (active)

N#Cc1cccc(NC(=O)N2CC3(CCN(C(=O)c4cccc(F)c4)CC3)C2)c1
AC50 (Cytochrome P450 3A4): inconclusive

Cn1c(=O)[nH]c(=O)c2c1nc(CN1CCOCC1)n2Cc1ccccc1
AC50 (Cytochrome P450 3A4): inconclusive

CN(C)S(=O)(=O)c1cc([N+](=O)[O-])ccc1N1CCCCCC1
EC50 (Ion channel NompC): > 29.9 µM (not active)
EC50 (Mucolipin-3): 10.1 µM (not active)
AC50 (Cytochrome P450 2C9): 11.2 µM (inconclusive)

Cc1cc(C)c2[nH]c(O)c(N=NC(S)=NCC3CCCO3)c2c1 (configuration not stated)
IC50 [3]: 0.509 µM (active)
IC50 (Bcl-2-related protein A1): > 20 µM (inactive)
IC50 [4]: 10.2 µM (active)

CCOC(=O)C1Cc2c([nH]c3ccccc23)CN1.Cl (configuration not stated)
AC50 (Cytochrome P450 3A4): inconclusive
AC50 (Cytochrome P450 2C9): 17.8 µM (inconclusive)

Nc1nc(N)c2cc(Sc3ccc4ccccc4c3)ccc2n1
EC50 (Streptococcus): 2.83 µM (active)
IC50 (HEK293 [8]): > 20 µM (inactive)
EC50 (BJ [21]): > 150 µM (inconclusive)
EC50 (BJ [22]): 2.06 µM (active)
EC50 [23]: 2.96 µM (active)
EC50 [24]: 5.4 µM (inconclusive)
EC50 (HEK293 [10]): > 20 µM (inactive)
EC50 (BJ [25]): 9.21 µM (active)
CC50 (Vero): 0.8 µM (active)
IC50 (HEK293 [11]): 11.5 µM (active)
IC50 (HEK293 [13]): 5.21 µM (active)
IC50 [26]: 3.67 µM (active)
EC50 [27]: 1.38 µM (active)
AC50 (INS1): 7.99 µM (active)
EC50 [28]: 0.148 µM (active)
IC50 [4]: > 20 µM (inactive)

COc1ccc(/C=N/n2c(S)nnc2-c2[nH]nc3c2CCC3)cc1
IC50 [1]: > 100 µM (inactive)
IC50 [2]: 3.61 µM (active)

CCc1nnc(NC(=O)COc2ccc(N(C)S(=O)(=O)c3ccc(C)cc3)cc2)s1
EC50 (Ion channel NompC): > 29.9 µM (not active)
EC50 (Mucolipin-3): 3.27 µM (active)

Cc1ccccc1OCC(=O)Nc1cc(S(=O)(=O)N2CCCCC2)ccc1N1CCN(C)CC1
EC50 (Ion channel NompC): > 29.9 µM (not active)
EC50 (Mucolipin-3): 5.43 µM (active)
EC50 [17]: > 60 µM (not active)
EC50 [19]: 0.634 µM (active)

COc1ccc(-c2nnc(-c3ccc(OCC(C)C)cc3)o2)cc1
AC50 (Cytochrome P450 3A4): inconclusive
AC50 (Cytochrome P450 2C9): 20 µM (inconclusive)
AC50 (Cytochrome P450 2C19): 7.08 µM (inconclusive)

COC(=O)c1cn(NC(=O)c2cnccn2)c(=O)c2ccccc12
IC50 (cells [9]): 9.07 µM (active)
EC50 [16]: 9.08 µM (active)
CC50 [14]: 24.2 µM (active)
EC50 [18]: 8.3 µM (active)
CC50 [15]: 16.2 µM (active)

Source: ChEMBL document CHEMBL1201862, “PubChem BioAssay data set” (2004)
